Source: patent publication US20150038430A1, “THERAPEUTIC PEPTIDOMIMETIC MACROCYCLES” (AILERON Therapeutics, Inc., priority 2008, published 2015)
Numbered stars: 1 amine (or outer) side, 2 acyl side, 3 side chain; on linkers, the order of the positions; unused ones are H or OH. Bridge positions count the residues as written; N and C are the ends. Square brackets hold non-standard residues; d marks the D form. Peptide text beside a SMILES is read from it. * marks the point of attachment. ξ: configuration not given here. ξαMeNle(6-ylidene) = CC(CCCC=[*:3])(N[*:1])C(=O)[*:2]; Nle = CCCC[C@H](N)C(=O)O; Aib = CC(C)(N)C(=O)O; Propionyl = CCC(=O)*

Columns and labels:
A375 = format: cell-based, human; conditions: 24 h
Experimental: (§1) Cell viability assays shown in FIGS. 34-52 were performed according to a similar protocol. Cells were split at optimal cell density a day prior to the initiation of the study. The next day, cells were washed twice in serum-free Opti-MEM media and 4000 cells/well were added to each well in a final volume of […] Opti-MEM. For serum-free experiments, macrocycles were diluted from 2 mM stocks (100% DMSO) in sterile water to prepare 400 μM working solutions. A 40 μM solution was then generated by ten-fold dilution in assay buffer. The macrocycle and controls were then serially diluted two-fold in assay buffer in dosing plates to provide concentrations between 1.2 and 40 μM, respectively. For experiments in 2% human serum, macrocycles were diluted from 10 mM stocks (100% DMSO) in sterile water to prepare 1 mM working solutions. A 100 μM solution was generated by ten-fold dilution in assay buffer. The macrocycles and controls were then serially diluted two-fold in assay buffer in dosing plates to provide concentrations between 3 and 100 μM, respectively. 50 μl of each dilution was then added to the appropriate wells of the test plate to achieve final concentrations of the macrocycle between 0.6 to 20 μM (for serum free experiment) or 1.5 to 50 μM (for 2% serum experiment), respectively. Controls included wells without macrocycles containing the same concentration of DMSO as the macrocycle-containing wells, wells containing 0.1% Triton X-100, and wells containing no cells. Plates were incubated for 24 hours at 37° C. in a humidified 5% CO2 atmosphere. At the end of a 24 hr incubation period, a CellTiter-Glo Luminescent Cell Viability Assay was performed according to manufacturer's instructions (Promega, catalog #G7571) and the luminescence was measured using a BIO-TEK synergy HT Plate reader. Values were plotted as percent viable, i.e. as a percentage of the negative control value (derived from cells exposed to DMSO only). All assays were performed in duplicate.
(§2) The following tables summarize the EC50 values (μM) observed with peptidomimetic macrocycles of the invention in various cell lines: […]

Jurkat = format: cell-based, human; conditions: 24 h
Experimental: as §1, §2

MDA-MB231-Met = format: cell-based, human; conditions: 24 h
Experimental: as §1, §2

Molt-4 = format: cell-based, human; conditions: 24 h
Experimental: as §1, §2

NCI-H82 (SCLC-MCL1+) = format: cell-based, human; conditions: 24 h
Experimental: as §1, §2

OVCAR8 = format: cell-based, human; conditions: 24 h
Experimental: as §1, §2

PC3 = format: cell-based, human; conditions: 24 h
Experimental: as §1, §2

RS4;11 = format: cell-based, human; conditions: 24 h
Experimental: as §1, §2

Raji = format: cell-based, human; conditions: 24 h
Experimental: as §1, §2

SEMK2 = format: cell-based, human; conditions: 24 h
Experimental: as §1, §2

Bcl-xL = Bcl-xL (Homo sapiens, UniProt Q07817); test: Kd, μM | Bcl-xL
From the text: (§3) Table printed on a drawing sheet, Figure 27
Head of the field: Kd, μM | Bcl-xL
Where the first naming reader finds the target: head: Kd, μM | Bcl-xL

Mcl-1 = test: Kd, μM | Mcl-1
From the text: as §3
Head of the field: Kd, μM | Mcl-1
First copying reader's note: The last row (ABT-737) is a small-molecule comparator; the three plots above the table are not copied.
Where the first naming reader finds the target: head: Kd, μM | Mcl-1

DHL-6 = format: cell-based, human; conditions: 24 h
Experimental: as §1, §2

MM1S = format: cell-based, human; conditions: 24 h
Experimental: as §1, §2

Sequence of Bcl-xL (Q07817 whole entry, looked up): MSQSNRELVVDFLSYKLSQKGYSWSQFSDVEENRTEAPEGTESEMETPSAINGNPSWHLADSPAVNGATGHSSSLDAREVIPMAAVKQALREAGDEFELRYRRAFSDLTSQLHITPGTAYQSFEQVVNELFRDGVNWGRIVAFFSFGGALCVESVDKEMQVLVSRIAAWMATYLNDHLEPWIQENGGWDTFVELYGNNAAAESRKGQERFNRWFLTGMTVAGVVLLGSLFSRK

Row | Structure (SMILES) | EC50 (A375) [nM] | EC50 (Jurkat) [nM] | EC50 (MDA-MB231-Met) [nM] | EC50 (Molt-4) [nM] | EC50 (NCI-H82 (SCLC-MCL1+)) [nM] | EC50 (OVCAR8) [nM] | EC50 (PC3) [nM] | EC50 (RS4;11) [nM] | EC50 (Raji) [nM] | EC50 (SEMK2) [nM] | Kd (Bcl-xL) [µM] | Kd (Mcl-1) [µM] | EC50 (DHL-6) [nM] | EC50 (MM1S) [nM]
1 | CCCC[C@@H]1NC(=O)CNC(=O)[C@H]([C@@H](C)CC)NC(=O)C(C)(NC(=O)[C@H](CCCNC(=N)N)NC(=O)[C@H](CC(C)C)NC(=O)[C@H](C)NC(=O)[C@H](CCC(N)=O)NC(=O)[C@H](C)NC(=O)[C@@H](NC(=O)[C@H](Cc2c[nH]c3ccccc23)NC(=O)[C@H](CCCNC(=N)N)NC(C)=O)[C@@H](C)CC)CCCC=CCCCC(C)(C(=O)N[C@@H](Cc2ccccc2)C(=O)N[C@@H](CC(N)=O)C(=O)N[C@@H](C)C(=O)N[C@@H](Cc2ccc(O)cc2)C(=O)N[C@@H](Cc2ccc(O)cc2)C(=O)N[C@@H](C)C(=O)N[C@@H](CCCNC(=N)N)C(=O)N[C@@H](CCCNC(=N)N)C(N)=O)NC1=O (some centres unmarked) [SP-12] (Ac-RWIAQALR[ξαMeNle(6-ylidene)]IG[Nle][ξαMeNle(6-ylidene)]FNAYYARR-NH2; staple 9-13) | 700 | 400 | 500 | 700 | 900 | 700 | 1900 | 1710 | 300 | 500 | 0.19 | 2.5 | – | –
2 | CC[C@H](C)[C@H](NC(=O)[C@H](Cc1c[nH]c2ccccc12)NC(=O)[C@H](CCCNC(=N)N)NC(C)=O)C(=O)N[C@@H](C)C(=O)N[C@@H](CCC(N)=O)C(=O)N[C@@H](C)C(=O)N[C@@H](CC(C)C)C(=O)N[C@@H](CCCNC(=N)N)C(=O)NC1(C)CCCC=CCCCC(C)(C(=O)N[C@@H](Cc2ccccc2)C(=O)N[C@@H](CC(N)=O)C(=O)N[C@@H](C)C(=O)N[C@@H](Cc2ccccc2)C(=O)N[C@@H](Cc2ccc(O)cc2)C(=O)N[C@@H](C)C(=O)N[C@@H](CCCNC(=N)N)C(=O)N[C@@H](CCCNC(=N)N)C(N)=O)NC(=O)[C@H](CC(=O)O)NC(=O)CNC(=O)[C@H]([C@@H](C)CC)NC1=O (some centres unmarked) [SP-15] (Ac-RWIAQALR[ξαMeNle(6-ylidene)]IGD[ξαMeNle(6-ylidene)]FNAFYARR-NH2; staple 9-13) | 800 | 400 | 900 | 700 | – | 1800 | 2100 | 1700 | 1000 | 800 | – | – | 500 | 600
3 | CCC(=O)N[C@@H](CCCNC(=N)N)C(=O)N[C@@H](CC(N)=O)C(=O)N[C@H](C(=O)N[C@@H](C)C(=O)N[C@@H](CCCNC(=N)N)C(=O)N[C@@H](Cc1c[nH]cn1)C(=O)N[C@@H](CC(C)C)C(=O)N[C@@H](C)C(=O)NC1(C)CCCC=CCCCC(C)(C(=O)N[C@@H](Cc2ccccc2)C(=O)N[C@@H](C)C(=O)N[C@@H](CCCNC(=N)N)C(=O)N[C@@H](CO)C(=O)N[C@H](C(N)=O)[C@@H](C)CC)NC(=O)[C@H](CC(=O)O)NC(=O)C(C)(C)NC(=O)[C@H](C(C)C)NC1=O)[C@@H](C)CC (some centres unmarked) [SP-9] (Propionyl-RNIARHLA[ξαMeNle(6-ylidene)]V[Aib]D[ξαMeNle(6-ylidene)]FARSI-NH2; staple 9-13) | 4100 | 1900 | 2900 | 1000 | 4200 | 7100 | 5700 | 4300 | 5700 | 8100 | – | – | 2700 | 5500
